The supplement of paper PMC10307832

How the values were obtained:
Assay in all cases: relative viability (nuclei count vs DMSO), 5 days (fraction); higher = more cells survive
Sunitinib + Navitoclax = compound: CCN(CC)CCNC(=O)c1c(C)[nH]c(/C=C2\C(=O)Nc3ccc(F)cc32)c1C [Sunitinib] + CC1(C)CCC(c2ccc(Cl)cc2)=C(CN2CCN(c3ccc(C(=O)NS(=O)(=O)c4ccc(N[C@H](CCN5CCOCC5)CSc5ccccc5)c(S(=O)(=O)C(F)(F)F)c4)cc3)CC2)C1 [Navitoclax] (partner 0.5 µM)
In short: (§1)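 After 5 days of treatment, lung cancer cells in 1536-well plates were fixed and stained in a single step (final 0.05% Triton X-100, 1% formaldehyde, 1 ug/ml Hoechst) and their nuclei counted on 4× images. Treatment had been applied by pin tool the day after seeding as one drug alone or as a fixed anchor-drug dose with five library-drug doses (not always all listed) in √10 steps. Relative viability is the nuclei count of treated wells divided by that of vehicle wells, and values are medians of duplicate plates.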

Sunitinib + Luminespib = compound: CCN(CC)CCNC(=O)c1c(C)[nH]c(/C=C2\C(=O)Nc3ccc(F)cc32)c1C [Sunitinib] + CCNC(=O)c1noc(-c2cc(C(C)C)c(O)cc2O)c1-c1ccc(CN2CCOCC2)cc1 [Luminespib] (partner 0.01 µM)
In short: as §1

Sunitinib + Dasatinib = compound: CCN(CC)CCNC(=O)c1c(C)[nH]c(/C=C2\C(=O)Nc3ccc(F)cc32)c1C [Sunitinib] + Cc1nc(Nc2ncc(C(=O)Nc3c(C)cccc3Cl)s2)cc(N2CCN(CCO)CC2)n1 [Dasatinib] (partner 0.075 µM)
In short: as §1

Sunitinib + Bortezomib = compound: CCN(CC)CCNC(=O)c1c(C)[nH]c(/C=C2\C(=O)Nc3ccc(F)cc32)c1C [Sunitinib] + CC(C)C[C@H](NC(=O)[C@H](Cc1ccccc1)NC(=O)c1cnccn1)B(O)O [Bortezomib] (partner 0.002 µM)
In short: as §1

Cell Line	relative viability (Sunitinib + Navitoclax; first compound 0.02 µM)	relative viability (Sunitinib + Navitoclax; first compound 0.06325 µM)	relative viability (Sunitinib + Navitoclax; first compound 0.2 µM)	relative viability (Sunitinib + Navitoclax; first compound 0.6325 µM)	relative viability (Sunitinib + Navitoclax; first compound 2 µM)	relative viability (Sunitinib + Luminespib; first compound 0.02 µM)	relative viability (Sunitinib + Luminespib; first compound 0.06325 µM)	relative viability (Sunitinib + Luminespib; first compound 0.2 µM)	relative viability (Sunitinib + Luminespib; first compound 0.6325 µM)	relative viability (Sunitinib + Luminespib; first compound 2 µM)	relative viability (Sunitinib + Dasatinib; first compound 0.02 µM)	relative viability (Sunitinib + Dasatinib; first compound 0.06325 µM)	relative viability (Sunitinib + Dasatinib; first compound 0.2 µM)	relative viability (Sunitinib + Dasatinib; first compound 0.6325 µM)	relative viability (Sunitinib + Dasatinib; first compound 2 µM)	relative viability (Sunitinib + Bortezomib; first compound 0.02 µM)	relative viability (Sunitinib + Bortezomib; first compound 0.06325 µM)	relative viability (Sunitinib + Bortezomib; first compound 0.2 µM)	relative viability (Sunitinib + Bortezomib; first compound 0.6325 µM)	relative viability (Sunitinib + Bortezomib; first compound 2 µM)
201T	1.19	1.18	1.21	1.18	1.2	1.05	1.05	1.05	1.08	1.03	0.542	0.56	0.57	0.571	0.528	1.08	1.09	1.13	1.09	1.08
A-427	0.954	0.987	0.999	1	1.12	0.923	1.08	1.13	–	0.903	0.66	0.641	0.787	0.723	0.692	–	0.987	0.976	0.986	0.936
ABC-1	–	–	–	–	–	0.407	0.609	0.533	0.622	0.861	0.561	0.609	0.495	0.513	0.49	0.294	0.309	0.297	0.289	0.312
BEN	0.0567	0.0707	0.072	0.0591	0.0799	0.414	0.453	0.396	0.53	0.333	0.31	0.301	0.277	0.38	0.309	0.769	0.904	0.757	0.784	0.733
CAL-12T	1.18	1.32	1.44	1.36	1.36	0.364	0.41	0.385	0.369	0.203	0.36	0.446	0.442	0.468	0.332	1.04	1.06	1.07	1.21	1.05
COR-L23	0.966	1.08	1.04	1.21	1.15	0.647	0.658	0.881	0.831	0.57	0.489	0.522	0.622	0.533	0.542	0.995	1.02	1	1.13	–
COR-L 105	0.752	0.868	0.832	0.921	0.959	0.665	0.706	0.744	0.914	0.686	0.316	0.361	0.286	0.379	0.543	0.977	0.877	0.923	1.01	0.823
Calu-6	0.896	0.772	0.923	0.972	0.914	–	–	–	–	–	–	–	–	–	–	0.979	–	1.08	1.2	1.09
ChaGo-K-1	0.911	1.02	0.978	0.914	0.936	0.587	0.662	0.784	0.709	0.724	0.529	0.753	0.575	0.571	0.598	1.04	1.03	1.03	0.977	1.05
EBC-1	0.467	0.472	0.417	0.557	0.626	–	–	–	–	–	–	–	–	–	–	0.475	0.573	0.65	0.532	0.534
EKVX	0.608	0.595	1.13	–	0.968	0.811	0.918	0.747	0.942	0.936	0.524	0.638	0.605	0.669	0.654	1.07	1.04	1.18	1.06	1.09
EMC-BAC-2	1.15	–	1.31	1.09	1.22	1.11	1.2	1.11	1.16	1.14	0.318	0.336	0.383	0.344	0.36	1.06	1.14	1.26	1.05	1.12
EPLC-272H	1.09	1.2	1.38	1.12	0.921	0.364	0.38	0.561	0.582	0.262	0.385	0.418	0.374	0.409	0.333	0.648	1.17	0.915	1.05	0.851
H3255	0.477	0.52	0.634	0.548	0.519	0.944	1.03	–	1.05	0.952	0.455	0.379	0.418	0.336	0.381	0.817	–	0.827	0.995	0.822
HARA	1.05	1.18	1.16	1.18	1.2	0.67	0.819	0.536	0.882	0.651	0.2	0.254	0.278	0.286	0.302	1	1.17	1.32	1.22	1.14
HCC-15	0.705	0.765	–	0.744	0.691	0.251	0.278	0.347	0.255	0.227	0.549	0.709	0.726	0.66	0.598	0.941	1.16	1.17	1.02	1.05
HCC-44	0.96	0.964	1.05	0.946	0.969	0.949	1.1	1.5	0.972	1.14	–	–	–	–	–	0.893	0.898	1.1	–	0.88
HCC-78	0.756	–	0.684	–	0.869	–	–	–	–	–	0.39	0.313	0.329	0.315	0.358	0.508	0.554	0.518	0.464	0.494
HCC-366	0.963	1.06	–	1.05	0.971	–	–	–	–	–	0.526	0.645	0.622	0.668	0.574	0.98	1.05	1.04	1.15	0.989
HCC-827	1.01	1.05	1.04	1.01	0.978	0.572	0.377	0.606	0.751	0.554	0.259	0.284	0.336	0.279	0.342	1.05	1.15	1.04	–	1.12

Cell Line	relative viability (Sunitinib + Navitoclax; first compound 0.02 µM)	relative viability (Sunitinib + Navitoclax; first compound 0.06325 µM)	relative viability (Sunitinib + Navitoclax; first compound 0.2 µM)	relative viability (Sunitinib + Navitoclax; first compound 0.6325 µM)	relative viability (Sunitinib + Navitoclax; first compound 2 µM)	relative viability (Sunitinib + Luminespib; first compound 0.02 µM)	relative viability (Sunitinib + Luminespib; first compound 0.06325 µM)	relative viability (Sunitinib + Luminespib; first compound 0.2 µM)	relative viability (Sunitinib + Luminespib; first compound 0.6325 µM)	relative viability (Sunitinib + Luminespib; first compound 2 µM)	relative viability (Sunitinib + Dasatinib; first compound 0.02 µM)	relative viability (Sunitinib + Dasatinib; first compound 0.06325 µM)	relative viability (Sunitinib + Dasatinib; first compound 0.2 µM)	relative viability (Sunitinib + Dasatinib; first compound 0.6325 µM)	relative viability (Sunitinib + Dasatinib; first compound 2 µM)	relative viability (Sunitinib + Bortezomib; first compound 0.02 µM)	relative viability (Sunitinib + Bortezomib; first compound 0.06325 µM)	relative viability (Sunitinib + Bortezomib; first compound 0.2 µM)	relative viability (Sunitinib + Bortezomib; first compound 0.6325 µM)	relative viability (Sunitinib + Bortezomib; first compound 2 µM)
HOP-62	1.09	1.16	1.17	1.09	0.942	0.832	0.928	1	1.02	0.919	0.616	0.744	0.826	0.777	0.682	0.798	0.83	0.947	0.871	1.13
LC-2-ad	0.381	0.495	0.714	0.406	0.355	1.09	1.06	1.18	1.04	0.913	0.621	0.599	0.872	0.558	0.403	0.883	1.04	1.05	1.07	0.932
LCLC-97TM1	0.465	0.402	–	0.401	0.323	0.597	0.743	–	0.794	0.772	0.918	0.904	0.914	0.911	0.793	0.653	0.967	0.713	0.774	0.757
LCLC-103H	–	–	–	–	–	0.883	1.04	0.966	0.977	1.06	0.428	0.527	0.501	0.462	0.589	1.11	1.19	1.2	1.04	1.18
LK-2	0.737	0.963	1.12	0.862	0.836	0.193	0.213	0.208	0.231	0.2	0.223	0.27	0.324	0.339	0.297	–	–	–	–	–
LOU-NH91	0.727	0.665	0.746	0.734	0.564	0.332	0.403	0.338	0.357	0.349	0.576	0.564	0.615	0.648	0.644	0.586	0.48	0.463	0.426	0.494
LU99A	0.807	0.765	–	0.882	0.788	0.281	0.254	0.281	0.221	0.299	0.489	0.5	0.612	0.57	0.49	1	1.13	1.15	1.35	1.12
NCI-H358	–	–	–	–	–	0.375	0.304	0.564	0.307	0.242	0.151	0.187	0.182	0.19	0.174	–	–	–	–	–
NCI-H650	–	–	–	–	–	0.914	0.83	0.766	0.803	0.716	0.491	0.523	0.41	0.533	0.476	0.884	0.819	0.916	1.03	1.09
NCI-H661	–	–	–	–	–	0.896	0.934	0.949	0.896	0.83	0.923	1.12	1.06	1.07	1.1	–	0.77	0.801	1	0.87
NCI-H1299	1.03	1.11	1.05	1.03	1.09	–	–	–	–	–	–	–	–	–	–	0.999	1.06	1.01	–	1
NCI-H1395	1.03	1.21	1.34	1.27	1.17	0.72	0.375	0.723	0.706	0.602	0.394	0.463	0.453	0.406	0.266	–	–	–	–	–
NCI-H1563	–	–	–	–	–	0.54	0.566	0.5	0.517	0.479	0.487	0.505	0.441	0.422	0.489	0.752	0.918	0.897	0.906	0.771
NCI-H1703	0.621	0.264	0.289	0.254	0.184	–	–	–	–	–	–	–	–	–	–	0.249	0.218	0.176	0.19	0.176
NCI-H1793	–	0.528	0.438	0.458	0.472	0.19	0.166	0.165	0.191	0.166	0.397	0.366	0.429	0.444	0.346	–	–	–	–	–
NCI-H1944	1.03	1.04	1.1	–	1	0.738	0.722	0.752	0.769	0.638	0.205	0.246	0.211	0.239	0.211	–	–	–	–	–
NCI-H2170	0.607	0.681	0.572	0.651	0.445	0.642	0.586	0.729	0.686	0.565	0.505	0.653	0.656	0.548	0.544	–	–	–	–	–
NCI-H2342	–	–	–	–	–	0.658	0.67	0.868	0.778	0.838	0.327	0.288	0.301	0.338	0.336	–	–	–	–	–
SK-MES-1	1.18	1.34	1.43	1.3	1.3	0.729	0.708	0.795	–	0.7	0.354	0.457	0.341	0.319	0.308	–	–	–	–	–
